“Also recorded” adds a separate entry of the source.
How the values were obtained:
[1] = system: EL4 GD2^positive cells; assay: Intracellular calcium by flow cytometry (Rhod-2 AM); type: cell-based, mouse; conditions: PP1 10 μM, EL4 GD2positive cells
Procedure: (c) Effect of GD2 ligands on intracellular calcium concentrations. Resting EL4 GD2positive cells were treated with mAb 3F8 (13 nM), control mouse IgG (mIg) or the calcium ionophore A23187. Intracellular calcium concentration was evaluated over time by flow cytometry using the calcium-sensitive fluorophore Rhod-2 AM. mAb 3F8 can induce strong, sustainable calcium changes withing 5 minutes, while control mouse IgG has no effect. […] Shown are averages of 4 independent assays ± SEM.
Intracellular calcium studies: cells (1×10^6 per sample) were washed with Ringer's solution (155 mM NaCl, 4.5 mM KCl, 2 mM CaCl2, 1 mM MgCl2, 10 mM D-glucose, 5 mM HEPES) and resuspended in 1 ml Ringer's containing 10 μM p56^Lck inhibitor PP1 (BioMol) or vehicle for 15 minutes at 37° C. Then 5 μM Rhod-2AM (Molecular Probes) was then added to the cells and incubated for 30 minutes at room temprature with mild agitation. Cells were washed once in Ringer's, resuspended in 1 ml Ringer's and incubated for 30 minutes, after which cells were stimulated with the indicated ganglioside ligands (or calcium ionophore A23187 as control) and analyzed over a 30 minute period for intracellular Ca^2+ using a flow cytometer (Becton-Dickinson).

[2] = system: mAb 3F8-GD2 interactions; assay: Competitive ELISA: inhibition of mAb 3F8 binding to immobilized GD2 by peptides; set-up: key to Activity in SAR and deletion analysis (inactive mark): peptides marked by * are inactive; conditions: for % Inhibition of mAb 3F8-GD2 interactions: peptides 50 μg/well, 1 hour before mAb 3F8, immobilized GD2, no peptide = 0%, no mAb 3F8 = 100%, mean ± SEM of 5 experiments; for Activity in SAR and deletion analysis (inactive mark): Table 1 domains/peptides
Procedure: Detection of GD2 or GM1 by ELISA: 12.5 ng/well of ganglioside (GD2, Advanced Immunochemicals or GM1) were immobilized by drying onto PVC 96-well plates (Falcon), followed by blocking with PBS-0.5% BSA for one hour. Then, anti-GD2 mAb 3F8 or biotin-CTB were added for 10 minutes. The plate was washed three times with PBS-0.5% BSA and incubated 60 minutes with horseradish peroxidase (HRP)-conjugated anti-mouse antibody or HRP-conjugated-avidin. After three washes with PBS-0.5% BSA and two with PBS, the colorimetric substrate ABTS was added and the plate read at 414 nm on a Biorad 550 plate reader. Assessment of peptide-GD2 interaction by competitive ELISA: ELISAs were as described above, except that peptides (50 μg/well, in PBS) were added to the wells for 1 hour before anti-GD2 mAb 3F8 or anti-GM1 cholera toxin-B. Selectivity of inhibition is controlled by lack of effect upon GM1-CTB interactions. […] No competitor peptide added or control irrelevant peptide added were standardized as 100% binding. […] Inhibition of mAb 3F8 bindng to immobilized GD2 by peptides, measured by competitive ELISA. No peptide or control peptide treatments are standardized as 0% inhibition. No mAb 3F8 treatment is standardized as 100% inhibition. Average of 5 […] experiments, n=4 in each experiment. Mean±SEM.

[3] = target: T1, human recombinant CD45 (Homo sapiens, UniProt P08575); assay: In vitro CD45 phosphatase assay; type: biochemical; conditions: gangliosides 16.7 μM, pp60Src phosphoregulatory peptide substrate
T1 construct: purchased BioMol
T1 sequence (P08575 26-1306): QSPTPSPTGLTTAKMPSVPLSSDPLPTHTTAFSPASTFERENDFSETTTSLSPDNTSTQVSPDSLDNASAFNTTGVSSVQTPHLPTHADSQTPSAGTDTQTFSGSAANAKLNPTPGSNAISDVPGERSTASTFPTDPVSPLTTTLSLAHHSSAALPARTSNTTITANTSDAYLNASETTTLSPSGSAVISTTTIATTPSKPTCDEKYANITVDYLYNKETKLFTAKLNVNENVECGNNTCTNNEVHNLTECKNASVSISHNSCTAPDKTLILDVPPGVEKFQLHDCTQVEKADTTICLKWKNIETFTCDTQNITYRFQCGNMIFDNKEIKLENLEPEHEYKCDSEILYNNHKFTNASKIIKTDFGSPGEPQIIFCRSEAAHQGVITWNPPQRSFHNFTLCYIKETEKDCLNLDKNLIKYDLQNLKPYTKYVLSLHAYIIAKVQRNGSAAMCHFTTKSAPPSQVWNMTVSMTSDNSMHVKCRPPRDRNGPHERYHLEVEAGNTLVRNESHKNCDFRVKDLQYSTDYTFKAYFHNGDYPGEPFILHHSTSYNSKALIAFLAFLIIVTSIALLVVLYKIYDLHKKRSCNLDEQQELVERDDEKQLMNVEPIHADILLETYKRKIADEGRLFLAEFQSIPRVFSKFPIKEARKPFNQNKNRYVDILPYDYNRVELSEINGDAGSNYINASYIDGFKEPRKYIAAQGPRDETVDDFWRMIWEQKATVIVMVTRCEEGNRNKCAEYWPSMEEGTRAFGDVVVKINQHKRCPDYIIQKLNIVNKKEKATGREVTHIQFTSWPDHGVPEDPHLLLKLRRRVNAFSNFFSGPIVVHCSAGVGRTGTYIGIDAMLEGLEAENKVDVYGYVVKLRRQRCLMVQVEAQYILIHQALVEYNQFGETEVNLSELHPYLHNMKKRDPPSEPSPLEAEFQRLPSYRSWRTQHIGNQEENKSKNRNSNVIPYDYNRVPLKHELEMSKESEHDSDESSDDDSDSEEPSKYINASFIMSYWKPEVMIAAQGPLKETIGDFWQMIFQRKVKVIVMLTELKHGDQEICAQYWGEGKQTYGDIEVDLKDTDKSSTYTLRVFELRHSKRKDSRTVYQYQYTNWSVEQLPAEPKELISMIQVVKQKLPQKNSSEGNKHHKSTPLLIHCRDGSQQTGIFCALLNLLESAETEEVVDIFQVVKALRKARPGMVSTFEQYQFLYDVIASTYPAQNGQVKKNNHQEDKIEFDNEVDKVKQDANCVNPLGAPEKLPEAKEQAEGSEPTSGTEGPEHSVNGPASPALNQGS
Procedure: In vitro CD45 phosphatase assay: human recombinant CD45 enzyme (BioMol, 75 units/well) was preincubated in the absence (negative control) or presence of sodium orthovanadate (positive control) or various gangliosides (16.7 μM) for 20 minutes at room temperature in half-volume 96-well microtiter plates. A CD45-specific substrate (pp60^Src C-terminal phosphoregulatory peptide, 200 μM) was then added for 20 minutes at 30° C., afterwhich the reaction was stopped and quantified with BioMol Green reagent. Plates were read at 620 nm with a Biorad 550 platew reader.

[4] = target: T2, purified p56^Lck tyrosine kinase (Homo sapiens, UniProt P06239); assay: Effect of exogenous gangliosides on in vitro kinase activity of purified p56Lck; type: biochemical; conditions: control assays
T2 construct: purchased Upstate Biotechnology
T2 sequence (P06239 whole entry): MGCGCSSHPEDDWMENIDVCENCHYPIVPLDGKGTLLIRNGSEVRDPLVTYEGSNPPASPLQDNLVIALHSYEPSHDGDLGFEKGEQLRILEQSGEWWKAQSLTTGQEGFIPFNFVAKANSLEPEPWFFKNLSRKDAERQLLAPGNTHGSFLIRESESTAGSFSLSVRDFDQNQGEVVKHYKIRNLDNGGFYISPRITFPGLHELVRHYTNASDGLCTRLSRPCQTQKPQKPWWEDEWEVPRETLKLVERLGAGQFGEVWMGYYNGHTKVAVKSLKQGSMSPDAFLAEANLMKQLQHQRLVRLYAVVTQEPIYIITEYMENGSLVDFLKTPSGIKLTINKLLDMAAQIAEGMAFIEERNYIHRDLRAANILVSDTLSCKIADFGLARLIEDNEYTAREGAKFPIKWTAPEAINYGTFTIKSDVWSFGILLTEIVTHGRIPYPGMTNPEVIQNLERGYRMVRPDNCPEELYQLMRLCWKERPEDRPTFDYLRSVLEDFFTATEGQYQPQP
Procedure: The kinase activity of p56^Lck was evaluated by measuring the incorporation of ^32PO4 in a peptidic p56^Lck substrate over time, with or without GD2 or GM1. Presence of GD2, but not GM1, can positively alter the kinetics of p56^Lck kinase activity. Activity standardized to untreated p56^Lck at the 20 minute time point. Shown are averages of 3 to 5 assays±SEM.
Effect of exogenous GD2 on p56^Lck in vitro kinase assay: chromatographically purified p56^Lck tyrosine kinase (Upstate Biotechnology) was incubated on ice for 10 minutes in kinase buffer (100 mM Tris-HCl, pH 7.2, 125 mM MgCl2, 25 mM MnCl2, 2 mM EGTA, 150 μM ATP, 0.25 mM sodium orthovanadate, 2 mM DTT) with or without ˜20 fold molar excess of ganglioside and 10 μCi [γ-^32P]ATP. Then 10 μg of the Src kinase substrate peptide p34^cdc2(6-20) (Upstate Biothechnology) was added to the mix and incubated at room temperature for the times indicated, after which the reaction was stopped by addition of 100 μM iodoacetamide and by precipitation of proteins with final 10% TCA. The supematant (containing the phosphorylated peptide substrate, not precipitated by TCA) was spotted on a P81 paper (Whatman) and washed three times with 0.75% phosphoric acid and once with acetone. The [^32P]-peptide content was quantified using a Storm 840 phosphorimager with ImageQuant software.

`Cc1ccc(-c2nn(C(C)(C)C)c3ncnc(N)c23)cc1` [PP1] was tested. Which “Effect of p56Lck inhibitor on mAb 3F8-induction of Ca++ fluxes” value [1] did it give?
Its value is “markedly decreased; also recorded: partially abolished”.

For C G G I T N Y N C (CGGITNYNC) [Pep 54], which “% Inhibition of mAb 3F8-GD2 interactions” value [2] is on record?
The value was 40.34 ± 3.17%.

With “C G G I T N Y N S A C (CGGITNYNSAC) [Pep 52]” as the molecule, how does the “% Inhibition of mAb 3F8-GD2 interactions” value [2] read?
The value was 30.17 ± 2.69%.

C G GI A N Y N C [Pep 58] was tested. Which “% Inhibition of mAb 3F8-GD2 interactions” value [2] did it give?
The value was 47.60 ± 4.26%.

How did the “% Inhibition of mAb 3F8-GD2 interactions” value [2] turn out when C G GI A N Y N T S C [Pep 59] was run?
Its value is 48.83 ± 5.01%.

C I A N Y N T C (CIANYNTC) [Pep 60] was tested. Which “% Inhibition of mAb 3F8-GD2 interactions” value [2] did it give?
Its value is 30.94 ± 3.53%.

How did the “% Inhibition of mAb 3F8-GD2 interactions” value [2] turn out when C I T N Y N S C (CITNYNSC) [Pep 53] was run?
Its value is 24.74 ± 3.29%.

For C T N Y G V C (CTNYGVC) [Pep 56], which “% Inhibition of mAb 3F8-GD2 interactions” value [2] is on record?
Its value is 14.13 ± 5.43%.

For C T N Y G V H C (CTNYGVHC) [Pep 55], which “% Inhibition of mAb 3F8-GD2 interactions” value [2] is on record?
Its value is 12.23 ± 4.41%.

With G G I A N Y N T S (GGIANYNTS) [Pep 57] as the molecule, how does the “Activity in SAR and deletion analysis (inactive mark)” value (shortened to “Activity in SAR and deletion analysis”) [2] read?
Its value is “*”.

And the “% Inhibition of mAb 3F8-GD2 interactions” value [2]?
The value was 4.33 ± 5.23%.

Which “Inhibition of GD2-mAb 3F8 interactions in ELISA, in words” value [2] does the source give for “G G I T N Y N S A L M (GGITNYNSALM) [Pep 51]” here?
The value was “can also act as a competitive inhibitor”.

And the “% Inhibition of mAb 3F8-GD2 interactions” value [2]?
The value was 44.96 ± 1.57%.

For GD1a, which “Inhibition of CD45 phosphatase activity” value [3] is on record?
The value was 50%.

Which “Activity in SAR and deletion analysis” value [2] does the source give for “YCTNYGVCY [core matches Pep 56 with added terminal Y residues]” here?
The value was “*”.

“YCTNYGVHCY [core matches Pep 55 with added terminal Y residues]” was tested. Which “Activity in SAR and deletion analysis” value [2] did it give?
The value was “*”.

Which “p56Lck kinase activity upon addition of exogenous lipid, in words” value [4] does the source give for phosphatidylcholine here?
The value was “not altered”.

From patent US7423114B2, “GD2 ligands” (McGill University, priority 2002, dated 2008)
